PubChem BioAssay AID248 (DTP/NCI, 2004)
“And” between values parts separate entries of the source, which are not always exact repeats. Equal values may be shown once. Toxic doses and inconclusive results are not listed. Cut-off read from the data, not from the text of the source: active = T/C of 150% or more; inactive = T/C below 125%. Peptide text beside a SMILES is read from it.

Tested on: L1210 leukemia ip in BDF1 mice, survival T/C
Assay: NCI In Vivo Anticancer Drug Screen. Data for tumor model L1210 Leukemia (intraperitoneal) in B6D2F1 (BDF1) mice
Details: endpoint: mean survival time, higher = longer survival
Outline: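 Value reflects the ratio of survival in compound-treated mice to survival in vehicle-treated controls, with both groups carrying the same transplanted tumor.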

[1] = dose: 100.0 mg/kg/injection, schedule: Q01DX009 (ip), vehicle: Klucel (hydroxypropylcellulose) (HPC)
[2] = dose: 100.0 mg/kg/injection, schedule: Q04DX003 (ip), vehicle: Klucel (hydroxypropylcellulose) (HPC)
[3] = dose: 200.0 mg/kg/injection, schedule: Q01DX009 (ip), vehicle: Klucel (hydroxypropylcellulose) (HPC)
[4] = dose: 200.0 mg/kg/injection, schedule: Q04DX003 (ip), vehicle: Klucel (hydroxypropylcellulose) (HPC)
[5] = dose: 400.0 mg/kg/injection, schedule: Q01DX009 (ip), vehicle: Klucel (hydroxypropylcellulose) (HPC)
[6] = dose: 400.0 mg/kg/injection, schedule: Q04DX003 (ip), vehicle: Klucel (hydroxypropylcellulose) (HPC)
[7] = dose: 50.0 mg/kg/injection, schedule: Q01DX009 (ip), vehicle: Klucel (hydroxypropylcellulose) (HPC)
[8] = dose: 25.0 mg/kg/injection, schedule: Q04DX003 (ip), vehicle: Klucel (hydroxypropylcellulose) (HPC)
[9] = dose: 50.0 mg/kg/injection, schedule: Q04DX003 (ip), vehicle: Klucel (hydroxypropylcellulose) (HPC)
[10] = dose: 100.0 mg/kg/injection, schedule: Q01DX001 (ip), vehicle: saline
[11] = dose: 200.0 mg/kg/injection, schedule: Q01DX001 (ip), vehicle: saline

Measured: T/C

O=C(Cl)c1ccccc1S(=O)(=O)N(CCOc1ccccc1)c1ccccc1
inactive: [1] 97 % of control | [2] 96 % of control | [3] 98 % of control | [4] 91 % of control | [5] 97 % of control | [6] 86 % of control

CC(C)CCCC(C)C1CCC2C3CC=C4CC(OC(=O)Nc5ccc(S(=O)(=O)NC6CCCCC6)cc5)CCC4(C)C3CCC12C (stereo not drawn)
inactive: dose: 100.0 mg/kg/injection, schedule: Q01DX001 (sc), vehicle: steriod suspending solution 110 % of control | dose: 200.0 mg/kg/injection, schedule: Q01DX001 (sc), vehicle: steriod suspending solution 108 % of control | dose: 400.0 mg/kg/injection, schedule: Q01DX001 (sc), vehicle: steriod suspending solution 105 % of control

CC(C)(c1ccc(OCCO)cc1)c1ccc(OCCO)cc1
inactive: dose: 100.0 mg/kg/injection, schedule: Q01DX009 (ip), vehicle: saline with Tween-80 97 % of control | dose: 200.0 mg/kg/injection, schedule: Q01DX009 (ip), vehicle: saline with Tween-80 98 % of control | dose: 400.0 mg/kg/injection, schedule: Q01DX009 (ip), vehicle: saline with Tween-80 93 % of control

COc1cc(OC)c(NC(=O)c2ccccc2Cl)cc1Cl
inactive: [1] 92 % of control | [3] 90 % of control | [5] 93 % of control

CCCCOc1ccc(/C=N/NC(=O)Nc2ccccc2)cc1
inactive: dose: 25.0 mg/kg/injection, schedule: Q01DX009 (ip), vehicle: Klucel (hydroxypropylcellulose) (HPC) 95 % of control | [7] 97 % of control | [1] 88 % of control and 90 % of control | [5] 87 % of control

OC/C=C\C1(O)CCCCC1
inactive: dose: 75.0 mg/kg/injection, schedule: Q01DX001 (ip), vehicle: saline 98 % of control | dose: 150.0 mg/kg/injection, schedule: Q01DX001 (ip), vehicle: saline 96 % of control

O=C(O)C1(Br)CC2CC1C1C2C2(Cl)C(Cl)=C(Cl)C1(Cl)C2(Cl)Cl (stereo not drawn)
inactive: dose: 75.0 mg/kg/injection, schedule: Q01DX001 (ip), vehicle: other 96 % of control | dose: 150.0 mg/kg/injection, schedule: Q01DX001 (ip), vehicle: other 96 % of control | dose: 300.0 mg/kg/injection, schedule: Q01DX001 (ip), vehicle: other 96 % of control

NC(N)=N/N=C/c1ccncc1
inactive: dose: 15.0 mg/kg/injection, schedule: Q01DX Z (ip), vehicle: saline 104 % of control | dose: 25.0 mg/kg/injection, schedule: Q01DX009 (ip), vehicle: saline 104 % of control | dose: 30.0 mg/kg/injection, schedule: Q01DX Z (ip), vehicle: saline 91 % of control | dose: 50.0 mg/kg/injection, schedule: Q01DX009 (ip), vehicle: saline 101 % of control | dose: 60.0 mg/kg/injection, schedule: Q01DX Z (ip), vehicle: saline 107 % of control | dose: 60.0 mg/kg/injection, schedule: Q01DX Z (oral), vehicle: saline 100 % of control | dose: 100.0 mg/kg/injection, schedule: Q01DX009 (ip), vehicle: saline 104 % of control | dose: 120.0 mg/kg/injection, schedule: Q01DX Z (ip), vehicle: saline 105 % of control | dose: 120.0 mg/kg/injection, schedule: Q01DX Z (oral), vehicle: saline 97 % of control | dose: 150.0 mg/kg/injection, schedule: Q01DX009 (ip), vehicle: saline 106 % of control | dose: 240.0 mg/kg/injection, schedule: Q01DX Z (oral), vehicle: saline 103 % of control

Cc1ccc(NC(=O)c2ccc(C)c(N)c2)c(C)c1
inactive: dose: 100.0 mg/kg/injection, schedule: Q01DX009 (ip), vehicle: gum acacia 100 % of control | dose: 100.0 mg/kg/injection, schedule: Q04DX003 (ip), vehicle: gum acacia 98 % of control | dose: 200.0 mg/kg/injection, schedule: Q01DX009 (ip), vehicle: gum acacia 87 % of control | dose: 200.0 mg/kg/injection, schedule: Q04DX003 (ip), vehicle: gum acacia 102 % of control | dose: 400.0 mg/kg/injection, schedule: Q01DX009 (ip), vehicle: gum acacia 87 % of control | dose: 400.0 mg/kg/injection, schedule: Q04DX003 (ip), vehicle: gum acacia 98 % of control

O=C1c2ccccc2C(=O)N1CCc1ccccc1
inactive: [1] 93 % of control | [2] 97 % of control and 101 % of control | [3] 96 % of control | [4] 94 % of control and 97 % of control | [5] 95 % of control | [6] 94 % of control and 101 % of control

N#CCCCN=[N+]=[N-]
inactive: dose: 37.5 mg/kg/injection, schedule: Q04DX003 (ip), vehicle: saline 104 % of control

CC(=O)OCC(C(=O)O)(c1ccccc1)c1ccccc1
inactive: dose: 55.0 mg/kg/injection, schedule: Q01DX Z (ip), vehicle: methylcellulose (MC) 94 % of control | dose: 83.0 mg/kg/injection, schedule: Q01DX Z (ip), vehicle: methylcellulose (MC) 98 % of control | dose: 125.0 mg/kg/injection, schedule: Q01DX Z (ip), vehicle: methylcellulose (MC) 93 % of control

CCCN1CCC(C(=O)CC)(c2cccc(O)c2)CC1
inactive: dose: 100.0 mg/kg/injection, schedule: Q04DX002 (ip), vehicle: Klucel (hydroxypropylcellulose) (HPC) 106 % of control | dose: 200.0 mg/kg/injection, schedule: Q04DX002 (ip), vehicle: Klucel (hydroxypropylcellulose) (HPC) 106 % of control

CC(C)c1ccc(NC(=O)c2ccc(Cl)c(Cl)c2)cc1
inactive: [1] 98 % of control | [3] 91 % of control | [5] 93 % of control

CC(O)C(NC(=O)C(N)CCCN=C(N)N)C(=O)NC(Cc1ccccc1)C(=O)O (stereo not drawn) (H-Arg-Thr-Phe-OH; configuration not given here)
inactive: dose: 18.75 mg/kg/injection, schedule: Q04DX002 (ip), vehicle: saline with Tween-80 101 % of control | dose: 37.5 mg/kg/injection, schedule: Q04DX002 (ip), vehicle: saline with Tween-80 97 % of control | dose: 75.0 mg/kg/injection, schedule: Q04DX002 (ip), vehicle: saline with Tween-80 93 % of control | dose: 150.0 mg/kg/injection, schedule: Q04DX002 (ip), vehicle: saline with Tween-80 97 % of control

Cc1ccccc1-n1c(C)cc(=O)c(C(=O)Cl)c1C
inactive: [8] 95 % of control | [9] 95 % of control | dose: 75.0 mg/kg/injection, schedule: Q04DX003 (ip), vehicle: Klucel (hydroxypropylcellulose) (HPC) 97 % of control | [2] 103 % of control | [4] 110 % of control

OCCCc1ccccc1O
inactive: dose: 50.0 mg/kg/injection, schedule: Q01DX001 (ip), vehicle: saline 102 % of control | [10] 102 % of control | [11] 94 % of control | dose: 400.0 mg/kg/injection, schedule: Q01DX001 (ip), vehicle: saline 91 % of control

Cc1ccc(NC(=O)OCCCl)cc1
inactive: [10] 117 % of control | [11] 112 % of control

CCN(CC)CCNc1cccc2sc3ccccc3c(=O)c12
inactive: [7] 92 % of control | [1] 94 % of control | [3] 94 % of control | [5] 100 % of control

O=P(Cc1ccccc1)(Cc1ccccc1)c1ccccc1
inactive: [8] 102 % of control | [9] 118 % of control | [2] 95 % of control and 104 % of control
